Values of other authors in US20210121408A1, “Methods of Administering Cannabinoid to People Diagnosed With HIV” (priority 2019, published 2021).

Compound: CCCCCc1cc(O)c2c(c1)OC(C)(C)[C@@H]1CCC(C)=C[C@@H]21 [THC, delta-9-tetrahydrocannabinol]
- solubility in ethanol, acetone, chloroform and light petroleum (ethanol, acetone, chloroform and light petroleum): soluble
- solubility in water (water): insoluble
